Test results: patent publication US11249071B2, “Reactivation of x chromosome genes” (CALIFORNIA INSTITUTE OF TECHNOLOGY, priority 2015, dated 2022)
“Also recorded” adds a separate entry of the source.

Test system: MLF cells having silenced X genes
Assay: X-chromosome reactivation assay (single molecule RNA FISH) in MLF cells treated with inhibitors
Type: cell-based
Conditions: mouse MLF cells, HDAC3 inhibitor alone (Scriptaid 100 nM), 48 hours, FIGS. 7A-7B
Procedure: 5,000 Mouse MLF cells were plated on a poly-D-lysine (Sigma) and 0.2% gelatin (Sigma)-coated #1.5 coverslip placed into wells of a 24-well plate containing HEK media (DMEM, 10% Gemini Benchmark FBS, 1×L-glutamine, 1× sodium pyruvate, 1×NEAA, 1× Pen/Strep; Life Technologies unless otherwise indicated). After 16 hours, inhibitors were added into the media and incubated the cells for 48 hours. The inhibitors and the concentration used were: 5-Azacytidine (6 μM; Sigma, A2385), 5-Aza-2′-deoxycytidine ([…]; Sigma, A3656), RG 108 (200 μM; Abcam, ab141013), Trichostatin A (5 μM; Sigma, T8552), and Scriptaid (100 nM; Sigma, S7817).
Coverslips from siRNA transfection or inhibitor treatment were fixed in Histochoice (Sigma) for 10 min, washed thoroughly in PBS, and dehydrated in ethanol for storage until FISH staining. Single molecule RNA Fluorescence in situ hybridization (FISH) experiments were done using QuantiGene ViewRNA ISH Cell Assay (Affymetrix) and QuantiGene ViewRNA ISH Cell 740 Module (Affymetrix) according to manufacturer's protocol. […]
Cells were stained for target mRNAs and siRNA-targeted mRNA by FISH and imaged. Images were then analyzed using Matlab R2013b (described below). […] Within these cells, the copy number of target mRNAs were quantified using a peak finding method (described below) and compared across conditions. The mRNA levels were quantified for 50 individual cells. […]

## O=C(CCCCCN1C(=O)c2cccc3cccc(c23)C1=O)NO [Scriptaid]
  expression / reactivation of the Xist-dependent silenced Gpc4 gene, measured by levels of Gpc4 mRNA: resulting in expression of Gpc4; also recorded: resulting in the reactivation of the Xist-dependent silent Gpc4 gene
